Experimental data as given in paper PMC4048319, “Design and Synthesis of High Affinity Inhibitors of Plasmodium falciparum and Plasmodium vivax N-Myristoyltransferases Directed by Ligand Efficiency Dependent Lipophilicity (LELP)” (Journal of Medicinal Chemistry, 2014).

Experiments:
[1] = molecular target: T1, PfNMT (Plasmodium falciparum, UniProt Q9U419); test: LELP (cLogP/LE, PfNMT LE)
T1 sequence (Q9U419 1-410): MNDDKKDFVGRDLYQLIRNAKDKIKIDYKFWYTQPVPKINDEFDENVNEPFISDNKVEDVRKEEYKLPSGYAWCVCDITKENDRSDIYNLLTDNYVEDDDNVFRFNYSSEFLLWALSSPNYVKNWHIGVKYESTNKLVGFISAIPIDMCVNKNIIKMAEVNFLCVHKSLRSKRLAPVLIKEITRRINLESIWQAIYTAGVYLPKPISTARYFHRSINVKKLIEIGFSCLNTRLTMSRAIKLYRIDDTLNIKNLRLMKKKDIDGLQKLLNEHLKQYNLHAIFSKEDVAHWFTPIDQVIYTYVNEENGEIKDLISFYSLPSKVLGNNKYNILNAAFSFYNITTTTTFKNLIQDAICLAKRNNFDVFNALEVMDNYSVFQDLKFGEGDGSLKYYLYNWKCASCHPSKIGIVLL

[2] = molecular target: T2, PvNMT (Plasmodium vivax, UniProt A5K1A2); test: NMT enzyme inhibition, CPM fluorescence assay (PvNMT); type: biochemical; details: relative to 34c
T2 sequence (A5K1A2 1-410): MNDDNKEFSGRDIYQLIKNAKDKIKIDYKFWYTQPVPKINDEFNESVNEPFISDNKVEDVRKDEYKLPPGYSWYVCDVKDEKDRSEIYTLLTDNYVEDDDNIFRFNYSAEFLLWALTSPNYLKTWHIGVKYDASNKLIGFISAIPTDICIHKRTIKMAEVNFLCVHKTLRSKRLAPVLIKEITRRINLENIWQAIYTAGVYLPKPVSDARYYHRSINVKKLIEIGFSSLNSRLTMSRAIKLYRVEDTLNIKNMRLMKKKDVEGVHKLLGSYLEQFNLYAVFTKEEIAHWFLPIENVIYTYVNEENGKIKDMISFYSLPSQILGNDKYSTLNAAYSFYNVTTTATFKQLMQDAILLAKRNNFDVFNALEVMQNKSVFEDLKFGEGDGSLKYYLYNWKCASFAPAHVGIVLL
Description: (§1) All IC50 determinations were carried out using a 7-diethylamino-3-(4′-maleimidylphenyl)-4-methylcoumarin (CPM) fluorescence assay, as described previously for HsNMT1,[45] PvNMT,[46] and PfNMT.[21]
(§2) IC50 values are the mean value of two or more determinations, and standard deviation is within 20% of the IC50 unless otherwise specified. Data were elaborated using Microsoft Office Excel 2010, and IC50 values were determined using GraFit 7.0 (Erithacus Software Ltd., U.K.) by nonlinear regression fitting, which were then quoted as Ki as defined below.
(§3) The Michaelis constant (Km) was 3.64 μM and the substrate concentration was 4.00 μM, resulting in a Ki of 0.008 μM. Km values were calculated as described previously.[45]

[3] = in vitro; type: cell-based; details: human
[4] = test system: HepG2 cells; test: in vitro; type: cell-based
[5] = test system: P. falciparum Dd2; test: Plasmodium falciparum [3H]hypoxanthine incorporation assay (Dd2); type: cell-based; details: drug-resistant vs drug-sensitive line
Description: This assay was performed by Dr. Sergio Wittlin and Dr. Christian Scheurer at the Swiss Tropical and Public Health Institute and is a modified version of the original hypoxanthine assay published by Desjardins et al.:[47]
Serial drug dilutions were prepared with a multichannel pipet, transferring 100 μL in a 2-fold serial dilution. Wells of rows A served as controls without drug. An amount of 100 μL of infected blood (parasitemia of 0.3%, 2.5% hematocrit) was added to all wells with a multipipette. The control wells (A9–A12) received uninfected blood of 2.5% hematocrit. The plates were incubated in an incubation chamber at 37 °C in an atmosphere containing 93% N2, 4% CO2, 3% O2. After 48 h, an amount of 50 μL of [^3H]hypoxanthine (=0.5 μCi) solution was added to each well of the plate. The plates were incubated for another 24 h. The plates were then harvested with a Betaplate cell harvester (Wallac, Zurich, Switzerland). The dried filters were inserted into a plastic foil with 10 mL of scintillation fluid and counted in a Betaplate liquid scintillation counter (Wallac, Zurich, Switzerland). The results were recorded as counts per minute (cpm) per well at each drug concentration.
Data were analyzed using a graphic program (e.g., Excel) and expressed as percentage of the untreated controls. The 50% inhibitory concentration (IC50) value was evaluated by logit regression analysis.

[6] = molecular target: T3, HsNMT1 (Homo sapiens, UniProt P30419); test: NMT enzyme inhibition, CPM fluorescence assay (HsNMT1); type: biochemical; details: ratio of Ki
T3 sequence (P30419 1-496): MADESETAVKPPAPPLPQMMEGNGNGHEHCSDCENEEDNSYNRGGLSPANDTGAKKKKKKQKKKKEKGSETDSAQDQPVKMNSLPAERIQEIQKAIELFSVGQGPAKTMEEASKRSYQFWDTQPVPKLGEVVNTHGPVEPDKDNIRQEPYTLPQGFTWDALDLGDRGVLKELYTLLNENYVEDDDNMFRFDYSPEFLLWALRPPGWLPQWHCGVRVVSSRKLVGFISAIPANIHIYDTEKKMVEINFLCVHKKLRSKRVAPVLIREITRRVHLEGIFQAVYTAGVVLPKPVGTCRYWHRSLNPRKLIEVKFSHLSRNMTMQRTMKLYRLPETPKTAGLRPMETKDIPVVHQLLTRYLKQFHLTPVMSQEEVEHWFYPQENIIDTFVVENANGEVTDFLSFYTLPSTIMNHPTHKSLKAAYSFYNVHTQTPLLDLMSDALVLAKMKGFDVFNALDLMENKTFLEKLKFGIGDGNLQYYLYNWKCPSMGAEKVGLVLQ
Description: as §1, §2, §3

[7] = parameters: method as in PMID 24451586; details: previously reported; cited from earlier work
[8] = molecular target: T1, PfNMT; test: NMT enzyme inhibition, CPM fluorescence assay (PfNMT); type: biochemical; details: for Ki: Ki calculated from IC50 by Cheng-Prusoff, mean of two or more determinations, read-out: PfNMT Ki
Description: as §1, §2, §3

[9] = molecular target: PbNMT (Plasmodium berghei, UniProt A0A509ARF4); test: PbNMT enzyme affinity; type: biochemical
Chain of PbNMT (A0A509ARF4 entry or part of it): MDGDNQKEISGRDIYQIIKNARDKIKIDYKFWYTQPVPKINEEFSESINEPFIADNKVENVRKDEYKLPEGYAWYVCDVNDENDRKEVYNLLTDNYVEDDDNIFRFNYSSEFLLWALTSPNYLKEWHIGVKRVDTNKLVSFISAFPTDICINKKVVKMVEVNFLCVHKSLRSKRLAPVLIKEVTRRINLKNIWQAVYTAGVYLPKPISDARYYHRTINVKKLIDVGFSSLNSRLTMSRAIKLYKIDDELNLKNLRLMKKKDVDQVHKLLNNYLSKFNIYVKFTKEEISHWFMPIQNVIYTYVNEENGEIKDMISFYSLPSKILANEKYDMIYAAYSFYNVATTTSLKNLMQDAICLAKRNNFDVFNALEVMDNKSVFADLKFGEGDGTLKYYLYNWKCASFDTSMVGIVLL
Description: In addition, 34c was tested against a Plasmodium berghei (Pb) liver stage model to determine whether NMT is likely to be a viable drug target for clearance of liver stage parasites. […] This provides evidence that NMT inhibition is also a promising mechanism for targeting liver stage parasites and may therefore be an effective pathway for the disruption of multiple parasite life stages.

[10] = test system: rodent malaria model; parameters: method as in PMID 24451586; details: previously shown; cited from earlier work
[11] = cLogP determined with ChemAxon
[12] = Aqueous solubility; type: physicochemical; details: data not shown

| Structure (SMILES) | LELP [1] | further results |
| --- | --- | --- |
| COc1cccc(Cc2nc(-c3sc4ccccc4c3OC3CCNCC3)no2)c1 [14b, 5-(3-Methoxybenzyl)-3-(3-(piperidin-4-yloxy)benzo[b]thiophen-2-yl)-1,2,4-oxadiazole] | 12.4 | – |
| COc1cc(Cc2nc(-c3sc4ccccc4c3OC3CCNCC3)no2)cc(OC)c1 [14c] | 11.8 | – |
| c1ccc(Cc2nc(-c3sc4ccccc4c3OC3CCNCC3)no2)cc1 [14a] | 12.8 | – |
| O=C(OCCCc1ccccc1)c1sc2ccccc2c1OC1CCNCC1 [4d] | 18.6 | – |
| c1ccc(C(c2ccccc2)c2nnc(-c3sc4ccccc4c3OC3CCNCC3)o2)cc1 [23e] | 19.4 | – |
| Cc1n[nH]c(C)c1Cc1nnc(-c2sc3ccccc3c2OC2CCNCC2)o1 [34a] | 5.6 | lower binding affinity to PvNMT than 34c [2]: ~40 fold |
| Cc1noc(C)c1CCc1nnc(-c2sc3ccccc3c2OC2CCNCC2)o1 [35b] | 7.9 | – |
| COc1cccc(Cc2nnc(-c3sc4ccccc4c3OC3CCNCC3)o2)c1 [20b] | 9.2 | – |
| Clc1cccc(Cc2noc(-c3sc4ccccc4c3OC3CCNCC3)n2)c1 [9d] | 15.3 | – |
| Cc1nn(C)c(C)c1Cc1nnc(-c2sc3ccccc3c2OC2CCNCC2)o1 [34c, 2-(3-(Piperidin-4-yloxy)benzo[b]thiophen-2-yl)-5-((1,3,5-trimethyl-1H-pyrazol-4-yl)methyl)-1,3,4-oxadiazole] | 5.5 | EC50 at 72 h [3]: 12.3 µM; HepG2 LD50 ([4]; human, 72 h): 12 300 nM; HepG2 LD50 (approximate) ([4]; human, 72 h): ~10 µM; selectivity between parasitic and HepG2 cell lines ([4]; up to): ~40 fold; loss of potency between NF54 and Dd2 [5]: less than 4 fold; selectivity between PfNMT and HsNMT [6]: 8- to 9 fold; aqueous solubility [7]: > 8 mM; improvement in enzyme affinity (PfNMT) relative to 1 [8]: 100 fold; Ki [9]: 0.014 µM; parasitemia in vivo [10]: reduce parasitemia in vivo; reduction in lipophilicity relative to 1 [11]: 100 fold |
| O=C(NCCOc1ccccc1)c1sc2ccccc2c1OC1CCNCC1 [6c] | – | Ki [8]: > 10 µM |
| O=C(OCCc1ccccc1)c1sc2ccccc2c1OC1CCNCC1 [4a] | 14.3 | – |
| Cc1noc(C)c1Cc1nnc(-c2sc3ccccc3c2OC2CCNCC2)o1 [34b] | 6.1 | selectivity between PfNMT and HsNMT [6]: 8- to 9 fold |
| Cc1nn(C)c(C)c1CCc1nnc(-c2sc3ccccc3c2OC2CCNCC2)o1 [35c] | 8.2 | – |
| COc1cc(Cc2noc(-c3sc4ccccc4c3OC3CCNCC3)n2)cc(OC)c1 [9e] | 11.8 | solubility [12]: very low |
| CC(c1ccccc1)c1nnc(-c2sc3ccccc3c2OC2CCNCC2)o1 (stereo not drawn) [23a, 2-(1-Phenylethyl)-5-(3-(piperidin-4-yloxy)benzo[b]thiophen-2-yl)-1,3,4-oxadiazole] | 12.5 | – |
| FC(F)(c1ccccc1)c1nnc(-c2sc3ccccc3c2OC2CCNCC2)o1 [23d] | 13.8 | – |

| Structure (SMILES) | LELP [1] | further results |
| --- | --- | --- |
| c1ccc(C2(c3nnc(-c4sc5ccccc5c4OC4CCNCC4)o3)CC2)cc1 [23c] | 12.2 | – |
| COC(c1ccccc1)c1nnc(-c2sc3ccccc3c2OC2CCNCC2)o1 (stereo not drawn) [23f] | 10.5 | – |
| CC(C)(c1ccccc1)c1nnc(-c2sc3ccccc3c2OC2CCNCC2)o1 [23b] | 14.1 | – |
| COc1cc(CCOC(=O)c2sc3ccccc3c2OC2CCNCC2)cc(OC)c1 [4c] | 12.4 | – |
| OC(c1ccccc1)c1nnc(-c2sc3ccccc3c2OC2CCNCC2)o1 (stereo not drawn) [23g] | 7.9 | – |
| COc1cccc(CCOC(=O)c2sc3ccccc3c2OC2CCNCC2)c1 [4b, 3-Methoxyphenethyl 3-(Piperidin-4-yloxy)benzo[b]thiophene-2-carboxylate] | 13.2 | improvement in enzyme affinity (PfNMT) relative to 1 [8]: 6 fold |
| O=C1C(O)=C([C@H]2CC[C@H](c3ccc(Cl)cc3)CC2)C(=O)c2ccccc21 [compound 37, atovaquone, reference compound] | – | HepG2 LD50 ([4]; human, 72 h): >10 000 nM |
| Cc1n[nH]c(C)c1CCc1nnc(-c2sc3ccccc3c2OC2CCNCC2)o1 [35a] | 7.8 | – |
| COc1cccc(Cc2noc(-c3sc4ccccc4c3OC3CCNCC3)n2)c1 [9c] | 12.5 | – |
| O=C(OCCOc1ccccc1)c1sc2ccccc2c1OC1CCNCC1 [4e] | 14.1 | – |
| O=C(NCCc1ccccc1)c1sc2ccccc2c1OC1CCNCC1 [6a] | – | Ki [8]: > 10 µM |
| O=C(NCCCc1ccccc1)c1sc2ccccc2c1OC1CCNCC1 [6b] | – | Ki [8]: > 10 µM |
| c1ccc(Cc2noc(-c3sc4ccccc4c3OC3CCNCC3)n2)cc1 [9a, 3-Benzyl-5-(3-(piperidin-4-yloxy)benzo[b]thiophen-2-yl)-1,2,4-oxadiazole] | 12.4 | – |
| c1ccc(CCc2noc(-c3sc4ccccc4c3OC3CCNCC3)n2)cc1 [9b, 3-Phenethyl-5-(3-(piperidin-4-yloxy)benzo[b]thiophen-2-yl)-1,2,4-oxadiazole] | 15.2 | – |
| c1ccc(Cc2nnc(-c3sc4ccccc4c3OC3CCNCC3)o2)cc1 [20a] | 9.5 | – |
| c1ccc(Cc2n[nH]c(-c3sc4ccccc4c3OC3CCNCC3)n2)cc1 [compound 18] | 9.5 | – |
